Measured values as given in patent publication US20240208912A1 (Mirati Therapeutics, Inc., priority 2021, published 2024).
Structures can show the parent of a compound that is named as a salt.

Tests used:
PRMT5/MEP50 complex = target: T1, PRMT5/MEP50 complex (Homo sapiens, UniProt O14744); test: PRMT5:MEP50 HotSpot Assay (full-length histone H2A substrate, plus and minus MTA); type: biochemical; conditions: IC50 + 2 μM MTA, in the presence of 2 μM MTA
T1 construct: purchased Reaction Biology Corporation
T1 sequence (O14744 2-637 limits assumed): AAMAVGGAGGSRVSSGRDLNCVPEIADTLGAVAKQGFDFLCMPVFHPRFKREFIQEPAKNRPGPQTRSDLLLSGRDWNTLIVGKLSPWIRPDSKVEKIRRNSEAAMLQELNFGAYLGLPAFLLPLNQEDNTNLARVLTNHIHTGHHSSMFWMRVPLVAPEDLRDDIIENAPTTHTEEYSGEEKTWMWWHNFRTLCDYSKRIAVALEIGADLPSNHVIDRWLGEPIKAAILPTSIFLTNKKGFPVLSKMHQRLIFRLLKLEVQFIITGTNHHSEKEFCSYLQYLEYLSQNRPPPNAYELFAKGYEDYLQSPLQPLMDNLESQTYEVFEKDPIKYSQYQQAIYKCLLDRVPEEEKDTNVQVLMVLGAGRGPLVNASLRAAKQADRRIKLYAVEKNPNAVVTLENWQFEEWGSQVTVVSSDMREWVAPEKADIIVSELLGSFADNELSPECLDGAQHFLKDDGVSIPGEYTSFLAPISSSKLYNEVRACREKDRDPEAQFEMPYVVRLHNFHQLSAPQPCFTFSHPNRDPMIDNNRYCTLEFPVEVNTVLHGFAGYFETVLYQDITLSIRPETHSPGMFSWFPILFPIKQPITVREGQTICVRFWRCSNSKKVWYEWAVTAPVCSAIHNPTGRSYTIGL
T1 sequence (Q9BQA1 2-342 partner limits assumed): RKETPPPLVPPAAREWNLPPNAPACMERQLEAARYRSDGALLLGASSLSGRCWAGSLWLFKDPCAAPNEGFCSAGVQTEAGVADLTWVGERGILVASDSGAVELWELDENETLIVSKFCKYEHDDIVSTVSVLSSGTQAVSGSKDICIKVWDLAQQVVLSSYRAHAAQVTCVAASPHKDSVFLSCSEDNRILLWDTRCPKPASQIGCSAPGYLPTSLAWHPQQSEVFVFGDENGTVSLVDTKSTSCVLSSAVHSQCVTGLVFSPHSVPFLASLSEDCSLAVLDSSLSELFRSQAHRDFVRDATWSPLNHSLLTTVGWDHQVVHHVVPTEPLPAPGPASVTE
In short: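 Radiometric HotSpot format using recombinant full-length histone H2A as substrate, run with and without MTA. Reactions were stopped and spotted onto filter paper. Tritiated H2A was quantified by scintillation counting.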

[1] = tested on: HCT116 homozygous MTAP knockout cells; test: Proliferation assay (CellTiter-Glo, 10 days) in HCT116 homozygous MTAP knockout cells; type: cell-based; conditions: Homo sapiens, HCT-116, 240 h, CellTiter-Glo after 10 days of treatment, read-out: Proliferation IC50 (nM) HCT116 MTAP_KO
In short: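 MTAP-null HCT116 clone made by CRISPR/Cas9 knockout of both alleles, tested beside parental cells. Cells dosed the day after seeding, split 1:10 on day 6 into fresh medium with the same compound level, and read on day 11 by CellTiter-Glo. IC50 taken after 10 days of exposure.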

SMILES	IC50 (PRMT5/MEP50 complex)	IC50 [1]
Cn1ncc(-c2ccc3c(=O)[nH]nc(CN)c3c2)c1-c1sc2c(OCC(F)F)cccc2c1C#N [Example 4-269, 2-(4-(4-(aminomethyl)-1-oxo-1,2-dihydrophthalazin-6-yl)-1-methyl-1H-pyrazol-5-yl)-7-(2,2-difluoroethoxy)benzo[b]thiophene-3-carbonitrile]	0.0582 µM	182 nM
Cn1ncc(-c2ccc3c(=O)[nH]nc(CN)c3c2)c1-c1sc2cc(Cl)ccc2c1C#N [Example 4-270, 2-(4-(4-(aminomethyl)-1-oxo-1,2-dihydrophthalazin-6-yl)-1-methyl-1H-pyrazol-5-yl)-6-chlorobenzo-[b]thiophene-3-carbonitrile]	0.102 µM	400 nM
Cn1ncc(-c2ccc3c(=O)[nH]nc(CN)c3c2)c1-c1sc2cnccc2c1C#N [Example 4-273, 2-[4-[4-(aminomethyl)-1-oxo-2H-phthalazin-6-yl]-2-methyl-pyrazol-3-yl]thieno[2,3-c]pyridine-3-carbonitrile]	0.376 µM	1440 nM
Cn1ncc(-c2ccc3c(=O)[nH]nc(CN)c3c2)c1-c1sc2ccncc2c1C#N [Example 4-274, 2-[4-[4-(aminomethyl)-1-oxo-2H-phthalazin-6-yl]-2-methyl-pyrazol-3-yl]thieno[3,2-c]pyridine-3-carbonitrile]	1.07 µM	3380 nM
Cc1sc(-c2c(-c3ccc4c(=O)[nH]nc(CN)c4c3)cnn2C)c(C#N)c1OC1CC1 [Example 4-276, 2-(4-(4-(aminomethyl)-1-oxo-1,2-dihydrophthalazin-6-yl)-1-methyl-1H-pyrazol-5-yl)-4-cyclopropoxy-5-methylthiophene-3-carbonitrile]	0.222 µM	198 nM
Cn1ncc(-c2ccc3c(=O)[nH]nc(C4(N)CC4)c3c2)c1-c1sc2ccccc2c1C#N [Example 9-8, 2-(4-(4-(1-aminocyclopropyl)-1-oxo-1,2-dihydrophthalazin-6-yl)-1-methyl-1H-pyrazol-5-yl)benzo[b]thiophene-3-carbonitrile]	> 10 µM	10000 nM
Cn1ncc(-c2ccc3c(=O)[nH]nc(C4(N)CCC4)c3c2)c1-c1sc2ccccc2c1C#N [Example 9-10, 2-(4-(4-(1-aminocyclobutyl)-1-oxo-1,2-dihydrophthalazin-6-yl)-1-methyl-1H-pyrazol-5-yl) benzo[b]thiophene-3-carbonitrile]	> 10 µM	10000 nM
Cn1ncc(-c2ccc3c(=O)[nH]nc(C4CCN4)c3c2)c1-c1sc2ccccc2c1C#N (centres unmarked) [Example 9-11, 2-(4-(4-(azetidin-2-yl)-1-oxo-1,2-dihydrophthalazin-6-yl)-1-methyl-1H-pyrazol-5-yl)benzo[b]thiophene-3-carbonitrile]	1.44 µM	2370 nM
Cn1ncc(-c2ccc3c(=O)[nH]nc(C4CNC4)c3c2)c1-c1sc2ccccc2c1C#N [Example 9-12, 2-[4-[4-(azetidin-3-yl)-1-oxo-2H-phthalazin-6-yl]-2-methyl-pyrazol-3-yl]benzothiophene-3-carbonitrile]	4.25 µM	10000 nM
CCOc1cc(-c2cnn(C)c2-c2sc3ccccc3c2C#N)cc2c(CN)n[nH]c(=O)c12 [Example 10-24, 2-(4-(4-(aminomethyl)-8-ethoxy-1-oxo-1,2-dihydrophthalazin-6-yl)-1-methyl-1H-pyrazol-5-yl)benzo[b]thiophene-3-carbonitrile]	0.076 µM	166 nM

The remaining lines, values ahead:

IC50 (PRMT5/MEP50 complex)	IC50 [1]	SMILES
0.212 µM	136 nM	Cc1cnc2sc(-c3c(-c4ccc5c(=O)[nH]nc(CN)c5c4)cnn3C)c(C#N)c2c1 [Example 12-19, 2-[4-[4-(aminomethyl)-1-oxo-2H-phthalazin-6-yl]-2-methyl-pyrazol-3-yl]-5-methyl-thieno[2,3-b]pyridine-3-carbonitrile hydrochloride]
0.183 µM	269 nM	COCc1cccc2c(C#N)c(-c3c(-c4ccc5c(=O)[nH]nc(CN)c5c4)cnn3C)sc12 [Example 12-20, 2-[4-[4-(aminomethyl)-1-oxo-2H-phthalazin-6-yl]-2-methyl-pyrazol-3-yl]-7-(methoxymethyl) benzothiophene-3-carbonitrile hydrochloride]
0.128 µM	126 nM	Cn1ncc(-c2ccc3c(=O)[nH]nc(CN)c3c2)c1-c1sc2c(C3CCCO3)cccc2c1C#N (centres unmarked) [Example 12-21, 2-[4-[4-(aminomethyl)-1-oxo-2H-phthalazin-6-yl]-2-methyl-pyrazol-3-yl]-7-THF-2-yl-benzothiophene-3-carbonitrile hydrochloride]
0.235 µM	138 nM	Cn1ncc(-c2cc(O)c3c(=O)[nH]nc(CN)c3c2)c1-c1sc2ccccc2c1C#N [Example 15-6, 2-(4-(4-(aminomethyl)-8-hydroxy-1-oxo-1,2-dihydrophthalazin-6-yl)-1-methyl-1H-pyrazol-5-yl)benzo[b]thiophene-3-carbonitrile]
> 10 µM	4140 nM	Cn1ncc(-c2ccc3c(=O)[nH]c4c(c3c2)CCNC4)c1-c1sc2ccccc2c1C#N [Example 18-1, 2-(1-methyl-4-(6-oxo-1,2,3,4,5,6-hexahydrobenzo[c][1,7]naphthyridin-9-yl)-1H-pyrazol-5-yl)benzo[b]thiophene-3-carbonitrile]
0.146 µM	587 nM	CCn1ncc(-c2ccc3c(=O)[nH]nc(CN)c3c2)c1-c1sc2ccccc2c1C#N [Example 19-1, 2-[4-[4-(aminomethyl)-1-oxo-2H-phthalazin-6-yl]-2-ethyl-pyrazol-3-yl]benzothiophene-3-carbonitrile]
1.65 µM	4220 nM	CC(C)n1ncc(-c2ccc3c(=O)[nH]nc(CN)c3c2)c1-c1sc2ccccc2c1C#N [Example 19-2, 2-(4-(4-(aminomethyl)-1-oxo-1,2-dihydrophthalazin-6-yl)-1-isopropyl-1H-pyrazol-5-yl)benzo[b]thiophene-3-carbonitrile]
0.308 µM	149 nM	N#Cc1c(-c2c(-c3ccc4c(=O)[nH]nc(CN)c4c3)cnn2C(F)F)sc2ccccc12 [Example 19-3, 2-(4-(4-(aminomethyl)-1-oxo-1,2-dihydrophthalazin-6-yl)-1-(difluoromethyl)-1H-pyrazol-5-yl)benzo[b]thiophene-3-carbonitrile]
0.647 µM	1030 nM	N#Cc1c(-c2c(-c3ccc4c(=O)[nH]nc(CN)c4c3)cnn2C(F)(F)F)sc2ccccc12 [Example 19-4, 2-(4-(4-(aminomethyl)-1-oxo-1,2-dihydrophthalazin-6-yl)-1-(trifluoromethyl)-1H-pyrazol-5-yl)benzo[b]thiophene-3-carbonitrile]
